Test results as given in publication PMC6424464, “Multiple functional neurosteroid binding sites on GABAA receptors” (PLoS Biology, 2019).

Columns and labels:
[1] = biological target: T1, α1β3 GABAA receptor (β3 subunit) (Homo sapiens, UniProt P14867+P28472); test: two-electrode voltage clamp, potentiation and direct activation; assay type: cell-based; design: gene GABRB3; α1β3 receptors expressed in X. laevis oocytes; with GABAA receptor α1 subunit (GABRA1)
T1 sequence (P28472 26-473): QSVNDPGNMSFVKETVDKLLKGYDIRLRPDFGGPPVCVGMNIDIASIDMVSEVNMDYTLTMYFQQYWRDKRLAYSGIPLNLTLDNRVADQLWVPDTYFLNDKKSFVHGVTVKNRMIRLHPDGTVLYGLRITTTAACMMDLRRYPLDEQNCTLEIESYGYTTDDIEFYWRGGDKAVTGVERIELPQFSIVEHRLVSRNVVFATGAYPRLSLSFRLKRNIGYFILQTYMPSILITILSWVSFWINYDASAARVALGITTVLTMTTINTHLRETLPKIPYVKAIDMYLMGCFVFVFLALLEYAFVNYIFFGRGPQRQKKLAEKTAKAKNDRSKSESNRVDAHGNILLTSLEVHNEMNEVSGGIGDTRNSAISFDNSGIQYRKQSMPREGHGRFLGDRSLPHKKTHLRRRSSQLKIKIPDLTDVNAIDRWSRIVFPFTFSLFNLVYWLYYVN
T1 sequence (P14867 28-456): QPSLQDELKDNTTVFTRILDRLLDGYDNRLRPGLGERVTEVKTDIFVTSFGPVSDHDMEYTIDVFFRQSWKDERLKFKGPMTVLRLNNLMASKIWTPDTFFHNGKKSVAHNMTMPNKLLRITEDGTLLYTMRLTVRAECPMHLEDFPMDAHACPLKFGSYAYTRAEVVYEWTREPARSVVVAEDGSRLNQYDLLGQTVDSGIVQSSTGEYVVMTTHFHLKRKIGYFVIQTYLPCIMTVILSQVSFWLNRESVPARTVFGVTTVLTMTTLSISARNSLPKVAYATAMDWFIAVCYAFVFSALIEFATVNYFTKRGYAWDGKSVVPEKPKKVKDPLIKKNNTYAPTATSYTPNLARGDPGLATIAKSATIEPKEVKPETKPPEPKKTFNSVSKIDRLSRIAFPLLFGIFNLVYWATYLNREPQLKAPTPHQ

[2] = biological target: T2, GABAA receptor β3 subunit (Homo sapiens, UniProt P14867+P28472); test: photoaffinity labeling with middle-down MS, competed by allopregnanolone; EC50 from [3H]muscimol binding enhancement (whole α[…]β[…] receptor)
T2 construct: gene GABRB3; α1His-FLAG β3 receptor in HEK-293 cell membranes; adduct in TM3 peptide 280-313; with GABAA receptor α1 subunit (GABRA1)
T2 sequence (P28472 26-473): T1 sequence (P28472 26-473)
T2 sequence (P14867 28-456): T1 sequence (P14867 28-456)

[3] = biological target: T3, GABAA receptor α1 subunit (Homo sapiens, UniProt P14867); test: photoaffinity labeling ([…]) with middle-down MS; EC50 from [3H]muscimol binding enhancement (whole α[…]β[…] receptor); design: gene GABRA1; α1His-FLAG β3 receptor in HEK-293 cell membranes; adduct in TM4 peptide 398-423; with GABAA receptor β3 subunit (GABRB3)
T3 sequence (P14867 28-456): T1 sequence (P14867 28-456)
T3 sequence (P28472 26-473 partner): T1 sequence (P28472 26-473)

[4] = biological target: T4, GABAA receptor β3 subunit (Homo sapiens, UniProt P28472); test: photoaffinity labeling with middle-down MS, competed by allopregnanolone; EC50 from [3H]muscimol binding enhancement (whole α[…]β[…] receptor)
T4 construct: gene GABRB3; α1His-FLAG β3 receptor in HEK-293 cell membranes; adduct in TM3 peptide 278-313; with GABAA receptor α1 subunit (GABRA1)
T4 sequence (P28472 26-473): T1 sequence (P28472 26-473)
T4 sequence (P14867 28-456 partner): T1 sequence (P14867 28-456)

[5] = biological target: T5, GABAA receptor β3 subunit (Homo sapiens, UniProt P28472); test: biochemical
T5 construct: gene GABRB3

[6] = biological target: T3, GABAA receptor α1 subunit; test: biochemical; design: gene GABRA1
[7] = biological target: T1, α1β3 GABAA receptor (β3 subunit); test: competition of KK123, KK200 and KK202 photolabeling on β[…]; [3H]muscimol binding enhancement; design: gene GABRB3; α1His-FLAG β3 receptor in HEK-293 cell membranes; with GABAA receptor α1 subunit (GABRA1)
[8] = biological target: T3, GABAA receptor α1 subunit; test: competition of KK123 photolabeling at α1-Y415; [3H]muscimol binding enhancement; oocyte electrophysiology with site mutants; design: gene GABRA1; α1His-FLAG β3 receptor in HEK-293 cell membranes; with GABAA receptor β3 subunit (GABRB3)

**Q.** Which “two-electrode voltage clamp, potentiation and direct activation” value [1] does the source give for `CC(C)c1cccc(C(C)C)c1O` [propofol] here?
**A.** The value was “Propofol action was not different between the mutant and wild-type receptors, indicating a selective effect on neurosteroid action”.

**Q.** Which EC50 [2] does the source give for `C[C@]12CC[C@@H](O)CC1CCC1C2CC[C@@]2(C)C1CC[C@@H]2OCc1ccc(C2(C(F)(F)F)N=N2)cc1` (some centres unmarked) [KK200] here?
**A.** The EC50 was 0.54 ± 0.18 µM.

**Q.** What about the EC50 [3] of the same compound?
**A.** Its EC50 is 0.54 ± 0.18 µM.

**Q.** Which EC50 [4] does the source give for `C#CCO[C@H]1CCC2C3CCC4C[C@H](OCc5ccc(C6(C(F)(F)F)N=N6)cc5)CC[C@]4(C)C3CC[C@@]21C` (some centres unmarked) [KK202] here?
**A.** The EC50 was 1.1 ± 0.27 µM.

**Q.** For `C#CCCO[C@H]1C[C@]2(C)C3CC[C@@]4(C)C(CC[C@@H]4OC)C3CC3(N=N3)C2C[C@@H]1O` (some centres unmarked) [KK123], which EC50 [5] is on record?
**A.** The EC50 was 1.6 ± 0.2 µM.

**Q.** And the EC50 [6]?
**A.** Its EC50 is 1.6 ± 0.2 µM.

**Q.** For `CC(=O)[C@H]1CC[C@H]2[C@@H]3CC[C@H]4C[C@H](O)CC[C@]4(C)[C@H]3CC[C@]12C` [AlloP, 3α-hydroxy-5α-pregnan-20-one], which EC50 [7] is on record?
**A.** The EC50 was 3.9 ± 5.6 µM.

**Q.** What about the EC50 [8] of the same compound?
**A.** Its EC50 is 3.9 ± 5.6 µM.
